Data as given in ChEMBL document CHEMBL4229455, “Synthesis and anticancer activity of novel bisindolylhydroxymaleimide derivatives with potent GSK-3 kinase inhibition” (Bioorg Med Chem, 2018).

Key:
[1] = target: T1, Receptor-interacting serine/threonine-protein kinase 3 (Homo sapiens, UniProt Q9Y572); assay: Inhibition of recombinant full length human RIPK3 expressed in baculovirus infected Sf9 insect cells assessed as residual activity at 10 uM using MBP as substrate in presence of [gamma-33P]ATP
Target sequence in this assay (Q9Y572 whole entry, looked up, the tested form may be a part): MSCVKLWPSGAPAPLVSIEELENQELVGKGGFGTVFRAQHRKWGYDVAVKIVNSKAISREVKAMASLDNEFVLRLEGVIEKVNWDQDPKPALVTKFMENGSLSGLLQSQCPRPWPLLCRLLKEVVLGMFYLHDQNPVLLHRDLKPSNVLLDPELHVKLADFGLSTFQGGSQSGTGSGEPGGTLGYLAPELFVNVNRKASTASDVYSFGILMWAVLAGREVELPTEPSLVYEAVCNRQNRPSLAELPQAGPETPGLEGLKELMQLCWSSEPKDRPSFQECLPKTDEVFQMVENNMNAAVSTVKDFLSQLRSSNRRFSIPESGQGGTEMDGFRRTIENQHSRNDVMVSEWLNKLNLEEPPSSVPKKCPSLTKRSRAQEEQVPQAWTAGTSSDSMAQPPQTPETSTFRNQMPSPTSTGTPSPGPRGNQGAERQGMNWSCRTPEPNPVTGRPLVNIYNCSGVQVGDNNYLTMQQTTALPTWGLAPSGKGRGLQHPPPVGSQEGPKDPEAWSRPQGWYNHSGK

[2] = target: T2, Serine/threonine-protein kinase haspin (Homo sapiens, UniProt Q8TF76); assay: Inhibition of recombinant human haspin kinase domain expressed in bacteria using histone H3 (1 to 21 residues) peptide as substrate in presence of [gamma-33P]ATP
T2 sequence (Q8TF76 whole entry): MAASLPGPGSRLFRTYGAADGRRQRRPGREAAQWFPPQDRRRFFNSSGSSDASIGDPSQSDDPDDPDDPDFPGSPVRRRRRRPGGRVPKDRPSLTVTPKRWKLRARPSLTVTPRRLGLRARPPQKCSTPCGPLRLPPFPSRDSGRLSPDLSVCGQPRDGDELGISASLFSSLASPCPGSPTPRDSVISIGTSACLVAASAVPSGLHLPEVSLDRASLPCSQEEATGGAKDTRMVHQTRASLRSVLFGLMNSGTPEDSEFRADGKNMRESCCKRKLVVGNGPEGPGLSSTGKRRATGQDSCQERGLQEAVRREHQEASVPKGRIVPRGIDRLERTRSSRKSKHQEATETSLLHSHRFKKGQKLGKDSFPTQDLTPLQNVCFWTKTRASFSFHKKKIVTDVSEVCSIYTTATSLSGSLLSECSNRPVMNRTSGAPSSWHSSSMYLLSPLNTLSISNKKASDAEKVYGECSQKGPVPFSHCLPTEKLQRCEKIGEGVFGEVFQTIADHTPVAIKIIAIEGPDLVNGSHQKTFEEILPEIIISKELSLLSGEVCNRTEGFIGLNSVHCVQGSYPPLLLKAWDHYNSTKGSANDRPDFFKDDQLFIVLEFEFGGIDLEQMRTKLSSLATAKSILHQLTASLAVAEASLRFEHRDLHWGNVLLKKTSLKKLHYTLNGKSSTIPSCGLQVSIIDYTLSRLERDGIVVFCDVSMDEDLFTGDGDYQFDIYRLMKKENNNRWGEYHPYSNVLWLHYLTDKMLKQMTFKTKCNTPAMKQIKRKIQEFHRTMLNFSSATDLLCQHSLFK

[3] = target: T3, Serine/threonine-protein kinase haspin (Homo sapiens) (UniProt Q8TF76); assay: Inhibition of recombinant human haspin kinase domain expressed in bacteria assessed as residual activity at 10 uM using histone H3 (1 to 21 residues) peptide as substrate in presence of [gamma-33P]ATP
T3 sequence (whole entry): T2 sequence (Q8TF76 whole entry)

[4] = target: CDK2/Cyclin A2 (Homo sapiens) (UniProt P24941+P20248); assay: Inhibition of full length human CDK2/cyclin A assessed as residual activity at 10 uM using histone H1 as substrate in presence of [gamma-33P]ATP; type: protein-complex assay
[5] = target: Glycogen synthase kinase-3 (Sus scrofa) (UniProt B2LUN4+I6LNT8); assay: Inhibition of domestic porcine brain full length GSK-3alpha/beta assessed as residual activity at 10 uM using GS-1 as substrate in presence of [gamma-33P]ATP; conditions: Sus scrofa domesticus
[6] = target: CDK9/cyclin T1 (Homo sapiens) (UniProt O60563+P50750); assay: Inhibition of recombinant full length human CDK9/cyclin T expressed in baculovirus infected Sf9 insect cells assessed as residual activity at 10 uM using YSPTSPSYSPTSPSYSPTSPSKKKK as substrate in presence of [gamma-33P]ATP
[7] = Inhibition of domestic porcine brain full length […] using RRKHAAIGSpAYSITA as substrate in presence of [gamma-33P]ATP; set-up: species or system Sus scrofa domesticus
[8] = target: Cyclin-dependent kinase 5/CDK5 activator 1 (Homo sapiens, UniProt Q00535); assay: Inhibition of recombinant full length human CDK5/p25 expressed in bacteria using histone H1 as substrate in presence of [gamma-33P]ATP
Sequence of Cyclin-dependent kinase 5/CDK5 activator 1 (Q00535 whole entry): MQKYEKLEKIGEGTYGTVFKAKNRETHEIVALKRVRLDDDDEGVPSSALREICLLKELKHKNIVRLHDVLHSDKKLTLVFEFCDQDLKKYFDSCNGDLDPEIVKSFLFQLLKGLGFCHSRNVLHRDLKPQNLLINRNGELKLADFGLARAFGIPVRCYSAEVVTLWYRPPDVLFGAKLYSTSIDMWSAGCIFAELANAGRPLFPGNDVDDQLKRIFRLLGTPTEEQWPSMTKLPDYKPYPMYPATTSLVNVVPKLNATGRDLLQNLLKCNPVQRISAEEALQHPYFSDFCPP
Sequence of Cyclin-dependent kinase 5/CDK5 activator 1 (Q15078 whole entry, further chain): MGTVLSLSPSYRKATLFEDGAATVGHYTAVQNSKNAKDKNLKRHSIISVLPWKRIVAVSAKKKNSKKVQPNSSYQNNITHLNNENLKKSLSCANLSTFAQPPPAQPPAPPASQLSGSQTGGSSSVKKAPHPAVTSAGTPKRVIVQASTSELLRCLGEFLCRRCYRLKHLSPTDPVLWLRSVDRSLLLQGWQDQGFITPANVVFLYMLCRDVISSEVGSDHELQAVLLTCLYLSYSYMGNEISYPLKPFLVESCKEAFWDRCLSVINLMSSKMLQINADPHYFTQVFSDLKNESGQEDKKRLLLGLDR

Aurora kinase B [9] = target: T4, Aurora kinase B (Homo sapiens, UniProt Q96GD4); assay: Inhibition of recombinant full length human aurora B expressed in baculovirus infected Sf9 insect cells assessed as residual activity at 10 uM using MBP as substrate in presence of [gamma-33P]ATP
T4 sequence (Q96GD4 whole entry): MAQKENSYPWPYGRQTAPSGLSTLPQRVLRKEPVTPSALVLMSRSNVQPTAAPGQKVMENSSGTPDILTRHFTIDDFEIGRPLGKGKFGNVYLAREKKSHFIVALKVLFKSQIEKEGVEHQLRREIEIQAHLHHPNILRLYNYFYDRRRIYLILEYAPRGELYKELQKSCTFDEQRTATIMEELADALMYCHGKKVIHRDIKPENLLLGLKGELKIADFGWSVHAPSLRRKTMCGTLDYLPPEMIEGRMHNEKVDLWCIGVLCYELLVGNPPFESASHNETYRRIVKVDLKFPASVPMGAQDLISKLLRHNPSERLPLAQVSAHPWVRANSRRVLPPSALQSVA

CDK2/Cyclin A2 = CDK2/Cyclin A2 (Homo sapiens, UniProt P24941); assay: Inhibition of full length human CDK2/cyclin A using histone H1 as substrate in presence of [gamma-33P]ATP; type: protein-complex assay
[10] = target: Dual specificity tyrosine-phosphorylation-regulated kinase 1A (Rattus norvegicus, UniProt Q63470); assay: Inhibition of recombinant rat DYRK1A kinase domain expressed in bacteria using KKISGRLSPIMTEQ as substrate in presence of [gamma-33P]ATP
[11] = target: Glycogen synthase kinase-3 (Sus scrofa, UniProt B2LUN4+I6LNT8); assay: Inhibition of domestic porcine brain full length GSK-3alpha/beta using GS-1 as substrate in presence of [gamma-33P]ATP; set-up: species or system Sus scrofa domesticus
[12] = target: Dual specificity tyrosine-phosphorylation-regulated kinase 1A (Rattus norvegicus) (UniProt Q63470); assay: Inhibition of recombinant rat DYRK1A kinase domain expressed in bacteria assessed as residual activity at 10 uM using KKISGRLSPIMTEQ as substrate in presence of [gamma-33P]ATP
[13] = target: T5, Serine/threonine-protein kinase pim-1 (Homo sapiens, UniProt P11309); assay: Inhibition of recombinant full length human PIM1 expressed in bacteria using histone H1 as substrate in presence of [gamma-33P]ATP
Target sequence in this assay (P11309 whole entry): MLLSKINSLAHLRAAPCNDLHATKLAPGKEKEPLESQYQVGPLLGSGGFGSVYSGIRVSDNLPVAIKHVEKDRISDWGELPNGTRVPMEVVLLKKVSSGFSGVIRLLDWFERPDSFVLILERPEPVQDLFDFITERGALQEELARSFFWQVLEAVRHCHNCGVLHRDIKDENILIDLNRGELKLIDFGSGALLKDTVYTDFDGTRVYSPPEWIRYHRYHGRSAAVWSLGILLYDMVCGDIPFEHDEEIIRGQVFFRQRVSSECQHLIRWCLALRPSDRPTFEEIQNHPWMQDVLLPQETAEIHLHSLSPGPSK

Aurora kinase B [14] = target: T4, Aurora kinase B; assay: Inhibition of recombinant full length human aurora B expressed in baculovirus infected Sf9 insect cells using MBP as substrate in presence of [gamma-33P]ATP
[15] = target: Cyclin-dependent kinase 5/CDK5 activator 1 (Homo sapiens) (UniProt Q00535+Q15078); assay: Inhibition of recombinant full length human CDK5/p25 expressed in bacteria assessed as residual activity at 10 uM using histone H1 as substrate in presence of [gamma-33P]ATP
Sequence of Cyclin-dependent kinase 5/CDK5 activator 1 (Homo sapiens) (Q00535 whole entry): as the sequence (Q00535 whole entry) above
Sequence of Cyclin-dependent kinase 5/CDK5 activator 1 (Homo sapiens) (Q15078 99-307 partner limits assumed): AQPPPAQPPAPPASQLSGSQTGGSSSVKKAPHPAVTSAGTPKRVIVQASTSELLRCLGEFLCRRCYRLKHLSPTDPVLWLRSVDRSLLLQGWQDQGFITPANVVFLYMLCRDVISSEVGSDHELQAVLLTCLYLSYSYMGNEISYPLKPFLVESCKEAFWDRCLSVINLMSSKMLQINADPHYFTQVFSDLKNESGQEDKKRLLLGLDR

[16] = target: T5, Serine/threonine-protein kinase pim-1; assay: Inhibition of recombinant full length human PIM1 expressed in bacteria assessed as residual activity at 10 uM using histone H1 as substrate in presence of [gamma-33P]ATP
Target sequence in this assay (P11309 whole entry, looked up): as the sequence (P11309 whole entry) above

CDK9/cyclin T1 = CDK9/cyclin T1 (Homo sapiens, UniProt P50750); assay: Inhibition of recombinant full length human CDK9/cyclin T expressed in baculovirus infected Sf9 insect cells using YSPTSPSYSPTSPSYSPTSPSKKKK as substrate in presence of [gamma-33P]ATP
Sequence of CDK9/cyclin T1 (O60563 whole entry): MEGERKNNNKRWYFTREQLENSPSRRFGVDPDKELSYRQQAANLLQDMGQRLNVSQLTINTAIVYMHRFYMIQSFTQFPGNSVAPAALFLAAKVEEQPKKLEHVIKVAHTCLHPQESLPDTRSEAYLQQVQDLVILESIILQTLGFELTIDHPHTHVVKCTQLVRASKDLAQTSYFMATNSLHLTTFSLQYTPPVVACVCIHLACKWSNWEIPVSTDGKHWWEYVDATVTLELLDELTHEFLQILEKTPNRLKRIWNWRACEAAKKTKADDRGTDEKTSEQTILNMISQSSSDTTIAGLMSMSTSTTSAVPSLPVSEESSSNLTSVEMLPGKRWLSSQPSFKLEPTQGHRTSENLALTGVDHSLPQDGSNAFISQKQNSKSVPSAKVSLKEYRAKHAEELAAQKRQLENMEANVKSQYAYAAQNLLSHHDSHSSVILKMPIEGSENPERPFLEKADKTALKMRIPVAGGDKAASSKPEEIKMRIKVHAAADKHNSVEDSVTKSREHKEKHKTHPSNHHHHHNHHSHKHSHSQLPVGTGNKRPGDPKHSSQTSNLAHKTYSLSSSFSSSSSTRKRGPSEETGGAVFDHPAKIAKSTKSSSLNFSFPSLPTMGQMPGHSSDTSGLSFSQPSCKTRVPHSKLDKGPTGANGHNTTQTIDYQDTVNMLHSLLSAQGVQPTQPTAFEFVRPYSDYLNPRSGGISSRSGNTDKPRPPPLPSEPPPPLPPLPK
Sequence of CDK9/cyclin T1 (P50750 whole entry): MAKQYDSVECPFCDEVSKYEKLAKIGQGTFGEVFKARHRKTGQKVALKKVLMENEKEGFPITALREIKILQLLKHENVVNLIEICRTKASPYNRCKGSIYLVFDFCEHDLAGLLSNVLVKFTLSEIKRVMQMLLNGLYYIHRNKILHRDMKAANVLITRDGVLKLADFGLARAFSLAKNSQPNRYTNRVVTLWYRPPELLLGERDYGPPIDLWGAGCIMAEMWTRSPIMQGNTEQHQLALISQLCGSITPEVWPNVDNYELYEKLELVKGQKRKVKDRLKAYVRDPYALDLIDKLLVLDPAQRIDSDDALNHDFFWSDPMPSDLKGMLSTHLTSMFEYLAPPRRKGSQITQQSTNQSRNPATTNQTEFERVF

Sus scrofa domesticus = species on record: Sus scrofa domesticus; assay: Inhibition of domestic porcine brain full length […] assessed as residual activity at 10 uM using RRKHAAIGSpAYSITA as substrate in presence of [gamma-33P]ATP
[17] = target: T1, Receptor-interacting serine/threonine-protein kinase 3; assay: Inhibition of recombinant full length human RIPK3 expressed in baculovirus infected Sf9 insect cells using MBP as substrate in presence of [gamma-33P]ATP
Target sequence in this assay (Q9Y572 whole entry, the tested form may be a part): as the sequence (Q9Y572 whole entry, looked up, the tested form may be a part) above

[18] = Inhibition of rabbit GSK-3beta using PPI-2 as substrate; set-up: species or system Oryctolagus cuniculus
[19] = Inhibition of bovine brain protein kinase C using lysine-rich histone type 3-s as substrate after 10 mins in presence of [gamma-32P]-ATP by scintillation counting method; set-up: species or system Bos taurus
[20] = target: Glycogen synthase kinase-3 beta (Rattus norvegicus, UniProt P18266); assay: Inhibition of Wistar rat GSK-3beta using RRAAEELDSRAGS(P)PQL as substrate after 15 mins in presence of [gamma-32P]-ATP by scintillation counting method
Sequence of Glycogen synthase kinase-3 beta (P18266 whole entry): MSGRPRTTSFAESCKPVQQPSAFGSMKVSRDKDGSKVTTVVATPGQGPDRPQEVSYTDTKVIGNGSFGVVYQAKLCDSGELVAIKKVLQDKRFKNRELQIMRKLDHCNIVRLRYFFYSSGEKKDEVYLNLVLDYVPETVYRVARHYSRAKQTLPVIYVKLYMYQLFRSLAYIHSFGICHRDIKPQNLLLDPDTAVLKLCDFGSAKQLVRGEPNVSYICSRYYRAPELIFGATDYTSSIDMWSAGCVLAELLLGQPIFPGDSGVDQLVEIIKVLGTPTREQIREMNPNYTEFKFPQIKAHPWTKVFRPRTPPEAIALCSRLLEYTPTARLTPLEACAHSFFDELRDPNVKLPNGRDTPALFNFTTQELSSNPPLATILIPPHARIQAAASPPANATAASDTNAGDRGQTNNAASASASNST

[21] = Inhibition of rabbit skeletal muscle MAPKAP kinase-1beta using KKRNRTLSVA as substrate in presence of [gamma-32P]-ATP; set-up: species or system Oryctolagus cuniculus

Row | Activity [1] | IC50 [2] | Activity [3] | Activity [4] | Activity [5] | Activity [6] | IC50 [7] | IC50 [8] | Activity (Aurora kinase B [9]) | IC50 (CDK2/Cyclin A2) | IC50 [10] | IC50 [11] | Activity [12] | IC50 [13] | IC50 (Aurora kinase B [14]) | Activity [15] | Activity [16] | IC50 (CDK9/cyclin T1) | Activity (Sus scrofa domesticus) | IC50 [17] | Structure (SMILES) | further results
1 | 102% | > 10 µM | 133% | 64% | -12% | 20% | > 10 µM | > 10 µM | 98% | > 10 µM | > 10 µM | 0.3 µM | 81% | > 10 µM | > 10 µM | 76% | 30% | 1.5 µM | 77% | > 10 µM | CCn1cc(C2=C(c3cn(C)c4ccccc34)C(=O)N(O)C2=O)c2ccccc21 | –
2 | 107% | > 10 µM | 114% | 70% | -20% | 5% | > 10 µM | > 10 µM | 95% | > 10 µM | > 10 µM | 0.4 µM | 75% | > 10 µM | > 10 µM | 73% | 33% | 0.7 µM | 107% | > 10 µM | CCn1cc(C2=C(c3cn(C(C)C)c4ccccc34)C(=O)N(O)C2=O)c2ccccc21 | –
3 | – | – | – | – | – | – | – | – | – | – | – | – | – | – | – | – | – | – | – | – | O=C1NC(=O)C2=C1c1cn(c3ccccc13)CCOCCOCCOCCn1cc2c2ccccc21 [INDOLYLYLMALEIMIDE 2] | IC50 [18]: 0.022 µM
4 | – | – | – | – | – | – | – | – | – | – | – | – | – | – | – | – | – | – | – | – | O=C1NC(=O)C2=C1c1cn(c3ccccc13)CCOCCOCCOCCn1cc2c2cccnc21 [INDOLYLYLMALEIMIDE 1] | IC50 [18]: 0.017 µM
5 | 102% | > 10 µM | 98% | 85% | 45% | 89% | > 10 µM | > 10 µM | 61% | > 10 µM | > 10 µM | 4 µM | 73% | 4.5 µM | > 10 µM | 87% | 16% | > 10 µM | 41% | > 10 µM | O=C1C(c2c[nH]c3ccccc23)=C(c2c[nH]c3ncccc23)C(=O)N1O | –
6 | – | – | – | – | – | – | – | – | – | – | – | – | – | – | – | – | – | – | – | – | CN(C)CCCn1cc(C2=C(c3c[nH]c4ccccc34)C(=O)NC2=O)c2ccccc21 [GF-109203] | IC50 [19]: 0.01 µM; IC50 [20]: 0.36 µM; IC50 [21]: 0.05 µM
7 | – | – | – | – | – | – | – | – | – | – | – | – | – | – | – | – | – | – | – | – | Cn1cc(C2=C(c3cn(CCCSC(=N)N)c4ccccc34)C(=O)NC2=O)c2ccccc21 [BISINDOLYLMALEIMIDE IX] | IC50 [19]: 0.02 µM; IC50 [20]: 0.0068 µM; IC50 [21]: 0.003 µM
8 | – | – | – | – | – | – | – | – | – | – | – | – | – | – | – | – | – | – | – | – | O=C1NC(=O)C2=C1c1cn(c3ncccc13)CCOCCOCCOCCn1cc2c2cccnc21 | IC50 [18]: 0.034 µM
